Laboratory results from patent US11560374B2, “Morpholinylpyridone compounds” (Sprint Bioscience AB, priority 2017, dated 2023).

Legend:
[1] = biological target: Vps34 enzyme (Homo sapiens (Human), UniProt Q8NEB9); experiment: Vps34 Biochemical Assay (Adapta kinase assay); conditions: 20 μM ATP and 200 μM PI:PS substrate mix, 1 h at room temperature, TR-FRET, read-out: Median IC50 nM Adapta
Method: Dilution series of compounds of the invention were prepared in DMSO at 100 times the final assay concentration (n1=n0/3 in 10 points). The compounds were further diluted to 4 times the assay concentration in assay buffer (Life technologies buffer Q, PV5125, diluted 5 times supplemented with 2 mM DTT and 2 mM MnCl2). 2.5 μl of the diluted compounds were added to a 384 well assay plate followed by 2.5 μl of 16.5 nM Vps34 enzyme (Life technologies, PV5126). Enzyme and compounds were pre-incubated at rt for 15 min. Then 5 μl of substrate mix containing 20 μM ATP (Life technologies, PV3227) and 200 μM PI:PS substrate (Life technologies, PV5122) in assay buffer was added to the wells containing compound and enzyme. Mixing was performed by pipetting several times. The reaction was incubated at room temperature for 1 h. Then 5 μl stop-detection mix, prepared as described in the Adapta kinase assay kit instructions (Life technologies, PV5099) containing Adapta Eu-anti-ADP antibody (2.3 nM), Alexa Fluor 647 ADP tracer (9 nM) and EDTA (30 mM) in TR-FRET buffer, was added to quench the reaction. Mixing was performed by pipetting several times. The assay plate was then incubated at room temperature for 30 min and read with Artemis micro plate reader. Percent inhibition of the compounds as compared to DMSO treated control samples was calculated. By the use of Dotmatics software compound concentration versus percent inhibition was fitted to generate IC50 values.

[2] = test system: autophagy in HOS cells (GFP-LC3); experiment: High Content Screening Autophagy Assay (GFP-LC3 foci); type: cell-based; conditions: Homo sapiens; HOS cells expressing GFP-LC3; autophagy activated with KU-0063794 500 nM and Bafilomycin A1 5 nM; 6 hours; foci area per cell; read-out: Median IC50 nM Cellular assay (HOS-LC3)
Method: Human osteosarcoma cells (HOS) stably expressing a Green Fluorescent Protein (GFP) tagged LC3 (GFP-LC3) were used to determine the inhibitory effect on autophagy of proprietary compounds. For that purpose, autophagy was activated by using the mTOR inhibitor KU-0063794 at 500 nM in the presence of Bafilomycin A1 (Sigma-Aldrich) at 5 nM. Shortly, cells were plated overnight in clear bottom 96-well plates in DMEM-High Modified media (Hi-Clone Cat #SH30285.01). At the start of the experiment, the media was removed and replaced with fresh media containing the mTOR inhibitor, Bafilomycin A1 and the vehicle or a test compound as indicated. After 6 hours the media was removed, cells were washed twice with ice-cold phosphate buffered saline (PBS) and fixed with 4% paraformaldehyde for 20 minutes at room temperature. Then the cells were washed twice with ice-cold PBS before adding Hoechst 33342 at 1 μg/ml in PBS for nuclear staining. After incubation overnight at 4° C., cells were washed once with PBS to remove the excess of dye and 100 μl of PBS was added to each well. Images were acquired at 20× magnification, 6 images per well, using the ImageXpress automated microscope (Molecular Devices Inc.) and analyzed with MetaXpress software to identify LC3-GFP foci. Foci area per cell values were used to generate dose response curves and IC50 values were calculated using the non-linear fitting analysis in GraphPad Prism software. […] The results of the assay are shown in Table 2 (Median IC50 nM HOS-LC3).

Vps34 enzyme, sequence (Q8NEB9 whole entry): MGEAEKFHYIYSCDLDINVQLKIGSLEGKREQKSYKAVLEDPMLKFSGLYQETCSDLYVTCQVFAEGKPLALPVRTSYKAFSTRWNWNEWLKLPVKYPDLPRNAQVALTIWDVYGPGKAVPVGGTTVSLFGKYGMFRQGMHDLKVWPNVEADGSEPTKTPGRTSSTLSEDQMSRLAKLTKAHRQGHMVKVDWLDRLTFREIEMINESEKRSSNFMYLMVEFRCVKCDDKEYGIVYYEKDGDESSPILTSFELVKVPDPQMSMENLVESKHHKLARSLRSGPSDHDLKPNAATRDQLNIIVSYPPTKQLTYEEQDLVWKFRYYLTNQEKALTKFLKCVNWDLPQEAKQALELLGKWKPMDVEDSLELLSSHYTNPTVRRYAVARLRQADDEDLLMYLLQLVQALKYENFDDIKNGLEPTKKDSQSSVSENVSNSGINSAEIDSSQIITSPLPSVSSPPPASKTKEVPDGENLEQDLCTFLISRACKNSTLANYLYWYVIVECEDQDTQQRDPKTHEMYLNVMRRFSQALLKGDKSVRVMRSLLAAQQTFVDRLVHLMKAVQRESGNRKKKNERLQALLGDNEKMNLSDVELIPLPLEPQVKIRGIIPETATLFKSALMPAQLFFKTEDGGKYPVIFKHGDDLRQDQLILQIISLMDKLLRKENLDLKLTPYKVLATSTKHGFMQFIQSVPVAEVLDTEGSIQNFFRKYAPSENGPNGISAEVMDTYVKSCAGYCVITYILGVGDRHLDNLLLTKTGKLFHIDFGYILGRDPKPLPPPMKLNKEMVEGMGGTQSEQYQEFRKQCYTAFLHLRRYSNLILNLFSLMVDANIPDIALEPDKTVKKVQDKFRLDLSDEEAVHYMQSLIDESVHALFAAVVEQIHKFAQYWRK

Structure (SMILES) | IC50 [1] [nM] | IC50 [2] [nM]
C[C@@H]1COCCN1c1cc(N2CCN(S(=O)(=O)c3ccc(F)cc3)CC2C(F)(F)F)[nH]c(=O)c1 (stereo partly drawn) [Example 20, 6-[4-(4-Fluorophenyl)sulfonyl-2-(trifluoromethyl)piperazin-1-yl]-4-[(3R)-3-methylmorpholin-4-yl]-1H-pyridin-2-one] | < 5 | 223
C[C@@H]1COCCN1c1cc(N2CCN(S(=O)(=O)c3ccnn3C)CC2C(F)(F)F)[nH]c(=O)c1 (stereo partly drawn) [Example 22, 4-[(3R)-3-methylmorpholin-4-yl]-6-[4-(2-methylpyrazol-3-yl)sulfonyl-2-(trifluoromethyl)piperazin-1-yl]-1H-pyridin-2-one] |  | 95
C[C@@H]1COCCN1c1cc(N2CCN(S(=O)(=O)C3(C)CC3)CC2C(F)(F)F)[nH]c(=O)c1 (stereo partly drawn) [Example 31, 6-[4-(1-methylcyclopropyl)sulfonyl-2-(trifluoromethyl)piperazin-1-yl]-4-[(3R)-3-methylmorpholin-4-yl]-1H-pyridin-2-one] | < 5 | 
C[C@@H]1COCCN1c1cc(N2CCN(S(=O)(=O)c3cncc(F)c3)CC2C(F)(F)F)[nH]c(=O)c1 (stereo partly drawn) [Example 10, 6-[4-[(5-Fluoro-3-pyridyl)sulfonyl]-2-(trifluoromethyl)piperazin-1-yl]-4-[(3R)-3-methylmorpholin-4-yl]-1H-pyridin-2-one] | < 5 | 106
C[C@@H]1COCCN1c1cc(-c2ccc(S(=O)(=O)N(C)C)cc2C(F)(F)F)[nH]c(=O)c1 [Example 35, N,N-dimethyl-4-[4-[(3R)-3-methylmorpholin-4-yl]-6-oxo-1H-pyridin-2-yl]-3-(trifluoromethyl)benzenesulfonamide] | < 5 | 458
C[C@@H]1COCCN1c1cc(N2CCN(S(=O)(=O)N(C)C)CC2C(F)(F)F)[nH]c(=O)c1 (stereo partly drawn) [Example 16, N,N-dimethyl-4-[4-[(3R)-3-methylmorpholin-4-yl]-6-oxo-1H-pyridin-2-yl]-3-(trifluoromethyl)piperazine-1-sulfonamide] | < 5 | 17
Cc1nc(S(=O)(=O)N2CCN(c3cc(N4CCOC[C@H]4C)cc(=O)[nH]3)C(C(F)(F)F)C2)cn1C (stereo partly drawn) [Example 30, 6-[4-(1,2-Dimethylimidazol-4-yl)sulfonyl-2-(trifluoromethyl)piperazin-1-yl]-4-[(3R)-3-methylmorpholin-4-yl]-1H-pyridin-2-one] | < 5 | 84
COCCS(=O)(=O)N1CCN(c2cc(N3CCOC[C@H]3C)cc(=O)[nH]2)C(C(F)(F)F)C1 (stereo partly drawn) [Example 18, 6-[4-(2-Methoxyethylsulfonyl)-2-(trifluoromethyl)piperazin-1-yl]-4-[(3R)-3-methylmorpholin-4-yl]-1H-pyridin-2-one] | < 5 | 83
C[C@@H]1COCCN1c1cc(-c2ccc(S(C)(=O)=O)cc2C(F)(F)F)[nH]c(=O)c1 [Example 33, 4-[(3R)-3-methylmorpholin-4-yl]-6-[4-methylsulfonyl-2-(trifluoromethyl)phenyl]-1H-pyridin-2-one] | < 5 | 491
C[C@@H]1COCCN1c1cc(N2CCN(S(=O)(=O)Cc3ccc(F)cc3)CC2C(F)(F)F)[nH]c(=O)c1 (stereo partly drawn) [Example 8, 6-[4-[(4-Fluorophenyl)methylsulfonyl]-2-(trifluoromethyl)piperazin-1-yl]-4-[(3R)-3-methylmorpholin-4-yl]-1H-pyridin-2-one] | < 5 | 12

Next, values leading:

IC50 [1] [nM] | IC50 [2] [nM] | Structure (SMILES)
 | 28 | C[C@@H]1COCCN1c1cc(N2CCN(S(=O)(=O)C3CC3)CC2C(F)(F)F)[nH]c(=O)c1 (stereo partly drawn) [Example 24, 6-[4-Cyclopropylsulfonyl-2-(trifluoromethyl)piperazin-1-yl]-4-[(3R)-3-methylmorpholin-4-yl]-1H-pyridin-2-one]
< 5 | 139 | C[C@@H]1COCCN1c1cc(N2CCN(S(=O)(=O)N3CCCCC3)CC2C(F)(F)F)[nH]c(=O)c1 (stereo partly drawn) [Example 26, 4-[(3R)-3-methylmorpholin-4-yl]-6-[4-(1-piperidylsulfonyl)-2-(trifluoromethyl)piperazin-1-yl]-1H-pyridin-2-one]
< 5 |  | C[C@@H]1COCCN1c1cc(N2CCN(S(=O)(=O)N3CCCC3)CC2C(F)(F)F)[nH]c(=O)c1 (stereo partly drawn) [Example 14, 4-[(3R)-3-methylmorpholin-4-yl]-6-[4-pyrrolidin-1-ylsulfonyl-2-(trifluoromethyl)piperazin-1-yl]-1H-pyridin-2-one]
 | 248 | C[C@@H]1COCCN1c1cc(N2CCN(S(=O)(=O)N3CCOCC3)CC2C(F)(F)F)[nH]c(=O)c1 (stereo partly drawn) [Example 28, 4-[(3R)-3-methylmorpholin-4-yl]-6-[4-morpholinosulfonyl-2-(trifluoromethyl)piperazin-1-yl]-1H-pyridin-2-one]
15 |  | C[C@@H]1COCCN1c1cc(N2CCN(S(C)(=O)=O)CC2C(F)(F)F)[nH]c(=O)c1 (single isomer, unassigned) [Example 6-2]
< 5 | 33 | C[C@@H]1COCCN1c1cc(N2CCN(S(C)(=O)=O)CC2C(F)(F)F)[nH]c(=O)c1 (single isomer, unassigned) [Example 6-1]
< 5 | 55 | C[C@@H]1COCCN1c1cc(N2CCN(S(=O)(=O)C3CCOC3)CC2C(F)(F)F)[nH]c(=O)c1 (stereo partly drawn) [Example 12, 4-[(3R)-3-methylmorpholin-4-yl]-6-[4-tetrahydrofuran-3-ylsulfonyl-2-(trifluoromethyl)piperazin-1-yl]-1H-pyridin-2-one]
